How the values were obtained:
[1] = test system: murine L1210 leukemia cell; assay: Antitumor effect on murine L1210 leukemia cell (increase in life-span of inoculated mice); type: in vivo, murine; male CDF1 mice; settings: for ILSmax (maximum percent increase in life-span) / ILS50 (dose which shows 50% of the ILS value by 5 administrations) / dose corresponding to ILSmax: L1210, i.p. once a day for 5 days; for ILSmax (maximum percent increase in life-span): 30 days observation; for ILS50 (dose which shows 50% of the ILS value by 5 administrations): linear regression; for TI (therapeutic index, LD50 value/ILS50 value): L1210
Experimental: (§1) Murine L1210 leukemia cells (1×10^5 cells) were inoculated peritoneally into six-week-old male CDF1 mice on day 0. From the next day after the inoculation, a drug (the compound of the invention or a compound for comparison) was administered peritoneally once a day for 5 days. After 30 days of observation, the percent increase in life-span (ILS) was calculated as follows: […]
(§2) T: mean survival days of the drug-treated group
(§3) C: mean survival days of control group
(§4) In these tables, ILSmax means maximum ILS value (%), and corresponding dose (mg/kg) is Shown in parenthesis.

[2] = test system: cisplatin-resistant murine L1210 leukemia cell (L1210/DDP); assay: Antitumor effect on cisplatin-resistant murine L1210 leukemia cell (L1210/DDP); type: in vivo, murine; male CDF1 mice; settings: for ILSmax (maximum percent increase in life-span) / dose corresponding to ILSmax / ILS50 (dose which shows 50% of the ILS value by 5 administrations): i.p. once a day for 5 days; for ILSmax (maximum percent increase in life-span): 30 days observation; for ILS50 (dose which shows 50% of the ILS value by 5 administrations): linear regression
Experimental: as §1, §2, §3
In these tables, ILSmax means maximum ILS value (%), and corresponding dose (mg/kg) is Shown in parenthesis. In this test, cisplatin and carboplatin were respectively tested in each test lot for accurate comparison.
Antitumor effect on cisplatin-resistant murine L1210 leukemia cell (L1210/DDP):
The test of Test Example 1 was repeated except that cisplatin-resistant murine L1210 leukemia cell (L1210/DDP) was used instead of murine L1210 leukemia cell.

[3] = test system: murine P388 leukemia cell; assay: Antitumor effect on murine P388 leukemia cell; type: in vivo, murine; male CDF1 mice; settings: for ILSmax (maximum percent increase in life-span) / ILS50 (dose which shows 50% of the ILS value by 5 administrations) / dose corresponding to ILSmax: P388, i.p. once a day for 5 days; for ILSmax (maximum percent increase in life-span): 30 days observation; for ILS50 (dose which shows 50% of the ILS value by 5 administrations): linear regression; for TI (therapeutic index, LD50 value/ILS50 value): P388
Experimental: as §1, §2, §3, §4
Antitumor effect on murine P388 leukemia cell:
The test of Test Example 1 was repeated except that 1×10^6 of murine P388 leukemia cells were used instead of 1×10^5 of murine L1210 leukemia cells.

[4] = 50% lethal dose by single peritoneal administration, obtained at the time of the dose setting; type: in vivo, CDF1 mice
Source text: as §4

In the case of `N.ONC1CCCCC1.[Cl][Pt][Cl]` [Compound No. 4, cis-dichloroammine (N-cyclohexylhydroxylamine)platinum(II)], the “ILSmax (maximum percent increase in life-span)” value ([1]; Table 4 test lot) is reported as greater than 120.0%, the “ILS50 (dose which shows 50% of the ILS value by 5 administrations)” value ([1]; Table 4 test lot) is reported as 2.1 mg/kg and the “dose corresponding to ILSmax” value ([1]; Table 4 test lot) is reported as 8.0 mg/kg. For the same compound, the “TI (therapeutic index, LD50 value/ILS50 value)” value ([1]; Table 4 test lot) was 42.0, the “TI (therapeutic index, LD50 value/ILS50 value)” value ([2]; Table 6 test lot) was greater than 88.2 and the “ILSmax (maximum percent increase in life-span)” value ([2]; Table 6 test lot) was greater than 183.0%. For the same compound, the “dose corresponding to ILSmax” value ([2]; Table 6 test lot) was 2.0 mg/kg, the “ILS50 (dose which shows 50% of the ILS value by 5 administrations)” value ([2]; Table 6 test lot) was less than 1.0 mg/kg and the “ILSmax (maximum percent increase in life-span)” value ([3]; Table 8 test lot) was 108.3%. For the same compound, the “ILS50 (dose which shows 50% of the ILS value by 5 administrations)” value ([3]; Table 8 test lot) was 1.1 mg/kg, the “dose corresponding to ILSmax” value ([3]; Table 8 test lot) was 16.0 mg/kg and the “TI (therapeutic index, LD50 value/ILS50 value)” value ([3]; Table 8 test lot) was 80.2. For the same compound, the “LD50 (50% lethal dose)” value [4] was 88.2 mg/kg.
In the case of `CCCO[NH][Pt]1([NH2])[O]C(=O)C2(CCC2)C(=O)[O]1` [Compound No. 16, (1,1-cyclobutane dicarboxylate)ammine (O-propylhydroxylamine)platinum(II)], the “ILSmax (maximum percent increase in life-span)” value ([3]; Table 10 test lot) is reported as 72.7%, the “ILS50 (dose which shows 50% of the ILS value by 5 administrations)” value ([3]; Table 10 test lot) is reported as 8.2 mg/kg and the “dose corresponding to ILSmax” value ([3]; Table 10 test lot) is reported as 8.0 mg/kg. For the same compound, the “TI (therapeutic index, LD50 value/ILS50 value)” value ([3]; Table 10 test lot) was 21.6 and the “LD50 (50% lethal dose)” value [4] was 176.8 mg/kg.
In the case of `N.N.O=C([O-])C1(C(=O)[O-])CCC1.[Pt+2]` [Carboplatin, carboplatin, reference compound], the “ILSmax (maximum percent increase in life-span)” value ([1]; Table 4 test lot) is reported as 50.6%, the “ILSmax (maximum percent increase in life-span)” value ([1]; Table 5 test lot) is reported as 72.5% and the “ILS50 (dose which shows 50% of the ILS value by 5 administrations)” value ([1]; Table 4 test lot) is reported as 41.0 mg/kg. For the same compound, the “ILS50 (dose which shows 50% of the ILS value by 5 administrations)” value ([1]; Table 5 test lot) was 33.9 mg/kg, the “dose corresponding to ILSmax” value ([1]; Table 4 test lot) was 64.0 mg/kg and the “dose corresponding to ILSmax” value ([1]; Table 5 test lot) was 64.0 mg/kg. The “TI (therapeutic index, LD50 value/ILS50 value)” value ([1]; Table 4 test lot) was 6.0, the “TI (therapeutic index, LD50 value/ILS50 value)” value ([1]; Table 5 test lot) was 7.2 and the “ILSmax (maximum percent increase in life-span)” value ([2]; Table 6 test lot) was 8.5%. The “ILSmax (maximum percent increase in life-span)” value ([2]; Table 7 test lot) was 14.3%, the “dose corresponding to ILSmax” value ([2]; Table 6 test lot) was 16.0 mg/kg and the “dose corresponding to ILSmax” value ([2]; Table 7 test lot) was 64.0 mg/kg. The “ILSmax (maximum percent increase in life-span)” value ([3]; Table 8 test lot) was 73.1%, the “ILSmax (maximum percent increase in life-span)” value ([3]; Table 9 test lot) was 79.8% and the “ILSmax (maximum percent increase in life-span)” value ([3]; Table 10 test lot) was 57.3%. For the same compound, the “ILS50 (dose which shows 50% of the ILS value by 5 administrations)” value ([3]; Table 8 test lot) was 10.5 mg/kg, the “ILS50 (dose which shows 50% of the ILS value by 5 administrations)” value ([3]; Table 9 test lot) was 12.1 mg/kg and the “ILS50 (dose which shows 50% of the ILS value by 5 administrations)” value ([3]; Table 10 test lot) was 13.8 mg/kg. For the same compound, the “dose corresponding to ILSmax” value ([3]; Table 8 test lot) was 16.0 mg/kg, the “dose corresponding to ILSmax” value ([3]; Table 9 test lot) was 32.0 mg/kg and the “dose corresponding to ILSmax” value ([3]; Table 10 test lot) was 32.0 mg/kg. For the same compound, the “TI (therapeutic index, LD50 value/ILS50 value)” value ([3]; Table 8 test lot) was 23.3, the “TI (therapeutic index, LD50 value/ILS50 value)” value ([3]; Table 9 test lot) was 20.2 and the “TI (therapeutic index, LD50 value/ILS50 value)” value ([3]; Table 10 test lot) was 17.8. The “LD50 (50% lethal dose)” value [4] was 245.0 mg/kg.
With `CON.N.[Cl][Pt][Cl]` [Compound No. 2, cis-dichloroammine (O-methylhydroxylamine)platinum(II)] the “ILSmax (maximum percent increase in life-span)” value ([3]; Table 8 test lot) was 126.9%, the “ILS50 (dose which shows 50% of the ILS value by 5 administrations)” value ([3]; Table 8 test lot) was less than 0.5 mg/kg and the “dose corresponding to ILSmax” value ([3]; Table 8 test lot) was 4.0 mg/kg. The “TI (therapeutic index, LD50 value/ILS50 value)” value ([3]; Table 8 test lot) was greater than 44.2 and the “LD50 (50% lethal dose)” value [4] was 22.1 mg/kg.
For `CCON.N.[Cl][Pt][Cl]` [Compound No. 5, cis-dichloroammine (O-ethylhydroxylamine)platinum(II)], the “ILSmax (maximum percent increase in life-span)” value ([1]; Table 4 test lot) was greater than 109.4%, the “ILS50 (dose which shows 50% of the ILS value by 5 administrations)” value ([1]; Table 4 test lot) was 0.9 mg/kg and the “dose corresponding to ILSmax” value ([1]; Table 4 test lot) was 4.0 mg/kg. The “TI (therapeutic index, LD50 value/ILS50 value)” value ([1]; Table 4 test lot) was 24.6, the “TI (therapeutic index, LD50 value/ILS50 value)” value ([2]; Table 6 test lot) was 27.6 and the “ILSmax (maximum percent increase in life-span)” value ([2]; Table 6 test lot) was greater than 152.8%. The “dose corresponding to ILSmax” value ([2]; Table 6 test lot) was 2.0 mg/kg, the “ILS50 (dose which shows 50% of the ILS value by 5 administrations)” value ([2]; Table 6 test lot) was 0.8 mg/kg and the “ILSmax (maximum percent increase in life-span)” value ([3]; Table 8 test lot) was greater than 129.6%. For the same compound, the “ILS50 (dose which shows 50% of the ILS value by 5 administrations)” value ([3]; Table 8 test lot) was 0.6 mg/kg, the “dose corresponding to ILSmax” value ([3]; Table 8 test lot) was 4.0 mg/kg and the “TI (therapeutic index, LD50 value/ILS50 value)” value ([3]; Table 8 test lot) was 36.8. The “LD50 (50% lethal dose)” value [4] was 22.1 mg/kg.
With `N.N.[Cl][Pt][Cl]` [Cisplatin, cisplatin, reference compound] the “ILSmax (maximum percent increase in life-span)” value ([1]; Table 4 test lot) was 88.2%, the “ILSmax (maximum percent increase in life-span)” value ([1]; Table 5 test lot) was 90.0% and the “ILS50 (dose which shows 50% of the ILS value by 5 administrations)” value ([1]; Table 4 test lot) was 1.3 mg/kg. For the same compound, the “ILS50 (dose which shows 50% of the ILS value by 5 administrations)” value ([1]; Table 5 test lot) was 1.1 mg/kg, the “dose corresponding to ILSmax” value ([1]; Table 4 test lot) was 4.0 mg/kg and the “dose corresponding to ILSmax” value ([1]; Table 5 test lot) was 4.0 mg/kg. For the same compound, the “ILSmax (maximum percent increase in life-span)” value ([2]; Table 6 test lot) was 0.9%, the “ILSmax (maximum percent increase in life-span)” value ([2]; Table 7 test lot) was 5.1% and the “dose corresponding to ILSmax” value ([2]; Table 6 test lot) was 4.0 mg/kg. The “dose corresponding to ILSmax” value ([2]; Table 7 test lot) was 4.0 mg/kg, the “ILSmax (maximum percent increase in life-span)” value ([3]; Table 8 test lot) was greater than 120.4% and the “ILSmax (maximum percent increase in life-span)” value ([3]; Table 9 test lot) was greater than 156.7%. For the same compound, the “ILSmax (maximum percent increase in life-span)” value ([3]; Table 10 test lot) was greater than 120.9%, the “ILS50 (dose which shows 50% of the ILS value by 5 administrations)” value ([3]; Table 8 test lot) was less than 0.5 mg/kg and the “ILS50 (dose which shows 50% of the ILS value by 5 administrations)” value ([3]; Table 9 test lot) was less than 0.5 mg/kg. For the same compound, the “ILS50 (dose which shows 50% of the ILS value by 5 administrations)” value ([3]; Table 10 test lot) was less than 0.5 mg/kg, the “dose corresponding to ILSmax” value ([3]; Table 8 test lot) was 4.0 mg/kg and the “dose corresponding to ILSmax” value ([3]; Table 9 test lot) was 4.0 mg/kg. The “dose corresponding to ILSmax” value ([3]; Table 10 test lot) was 4.0 mg/kg.

— patent US5498780A, “Platinum complex and malignant tumor treating drug containing the same” (SS Pharmaceutical Co., Ltd., priority 1994, dated 1996)
